Assay results published in publication PMC12637173, “Investigation on LASSBio‐1971 and LASSBio‐1974 Cellular Cytotoxic Mechanism and Their Comparative DMPK Profile” (Archiv Der Pharmazie, 2025).
Read-outs that look alike come from different tables or passages of the source.

What was measured:
PC‐9 (EGFRL858R) [1] = test: Apoptosis by flow cytometry (Muse Annexin V & Dead Cell Kit); format: cell-based, human; conditions: PC‐9, 72 h
Procedure: (§1) PC‐9 (EGFRL858R) cell line was seeded at 1 × 10^5 cells/well in a 24‐well plate. […] All flow cytometry assays were performed using Guava Muse Cell Analyzer (Cytek Biosciences) following each kit user's guide provided by the manufacturer. Muse Cell Cycle Kit (catalog no. MCH100106) was chosen to evaluate cell cycle arresting. Apoptosis features were evaluated using Muse Annexin V & Dead Cell Kit (catalog no. MCH100105), as well as inactivation of EGFR using Muse EGFR‐RTK Activation Dual Detection Kit (catalog no. MCH200102). Statistical analysis was performed using one‐way ANOVA on data collected in duplicate from at least two independent experiments (n ≥ 2), employing GraphPad Prism software (version 8.0).

[2] = system: NCI‐H1975 (EGFRL858R/T790M); test: Cell viability by MTT assay, NCI-H1975; conditions: Homo sapiens; for IC50: read-out: cytotoxic activity, NCI-H1975 (EGFRL858R/T790M); for CC50: NCI-H1975, 72 h, read-out: cytotoxic activity CC50, NCI‐H1975 (EGFRL858R/T790M)
Procedure: (§3) All cell lines were harvested at 37°C and 5% CO2 atmosphere humid incubator.
(§4) Cells were plated at 1 × 10^4 to 3 × 10^4 cells/well and seeded in a 96‐well plate. After 16–24 h of cell acclimatization, compounds were added at 0.003–100 µM concentrations (1% DMSO vehicle). After 72 h, treatment was interrupted to measure cell viability using MTT (3‐(4,5‐dimethylthiazol‐2‐yl)‐2,5‐diphenyltetrazolium bromide) (50 µg/mL) [62]. Formazan formed by viable cells was solubilized after 4 h incubation with SDS/HCl solution (0.1 g/mL) and read at 570 nm in spectrophotometer.

[3] = system: NCI‐H1975 (EGFRL858R/T790M); test: Cell viability by sulforhodamine B (SRB) assay, NCI-H1975; format: cell-based; conditions: Homo sapiens, 72 h, read-out: cytotoxic activity CC50, NCI‐H1975 (EGFRL858R/T790M)
Procedure: as §3
(§5) Cells were plated at 1 × 10^4 to 3 × 10^4 cells/well and seeded in a 96‐well plate. After 16–24 h of cell acclimatization, compounds were added at 0.003–100 µM concentrations (1% DMSO as vehicle). The experimental procedure was handled as described by Vichai and Kirtikara [63]. After incubation, cells were fixed with trichloroacetic acid (TCA) (10% m/v) for 1 h at 4°C. SRB (0.004% w/v in acetic acid 1%) was added for 30 min and washed with acetic acid 1%.

EGFR in PC‐9 (EGFRL858R) = test: EGFR activation by flow cytometry (Muse EGFR‐RTK Activation Dual Detection Kit); format: cell-based, human; conditions: PC‐9, at respective CC50, compared to vehicle (DMSO 1%)
Procedure: as §1

PC‐9 (EGFRL858R) [4] = test: Cell cycle by flow cytometry (Muse Cell Cycle Kit); format: cell-based, human; conditions: PC‐9, 24 h
Procedure: as §1

PAMPA‐BBB = format: in vitro ADME; conditions: PAMPA‐BBB; for Pe. Exp. BBB / Papp: mean ± standard deviation (n = 3); for Papp: read-out: Pe. Exp. BBB
Procedure: (§2) The lipid mixture that impregnates the filter has a different constitution for the permeability tests for the BBB (brain lipid from pig extract in n‐dodecane) and the GIT (L‐α soy phosphatidylcholine in n‐dodecane). The optical density values obtained in the reading at each selected wavelength, for each of the compounds, were analyzed in comparison with the values of several controls within a calibration curve (≥ 7 drugs). In the case of the BBB, these values were used to elaborate an equation and determine the permeability coefficient (Pe), while GIT used absorbed fraction (Fa%).

PAMPA‐GIT = format: in vitro ADME; conditions: PAMPA‐GIT; for Papp: mean ± standard deviation (n = 3), read-out: Pe. Exp. GIT
Procedure: as §2

[5] = Microsomal metabolic stability; format: in vitro ADME, rat; conditions: for Metabolism rate: RLM 1 mg/mL, 10 μM, 60 min; for half-life at 10 µM / microsomal CLint at 10 µM: rat, rat liver microsomes
Procedure: The metabolic stability of compounds LASSBio‐1971 (1) and LASSBio‐1974 (2) (10 μM) was incubated in 1 mg/mL of rat microsomes in the presence and absence of the cofactor (i.e., NADPH‐generating system) at the same concentrations as in the previous section. After mixing and incubating at 37°C in a shaking water bath for 1 h, 500 µL cold acetonitrile containing the internal standard was added to terminate the reaction at different time intervals (0, 15, 30, 45, and 60 min).

[6] = Conjugation with glutathione in rat liver microsomes; format: in vitro ADME; conditions: RLM 1 mg/mL, 10 μM, 2 mM GSH, 60 min, LC/MS/MS
Procedure: Incubation with pooled RLMs (1 mg/mL protein) was conducted in 50 mM potassium phosphate buffer (pH 7.4) at 37°C in an incubator for 60 min. LASSBio‐1971 (1) and P‐chlorophenyl isocyanate (10 μM) and 2 mM GSH were added to the buffer. The incubation was initiated by NADPH‐generating system consisting of 40 mM NADP^+, 350 mM glucose‐6‐phosphate, 5 units/mL glucose‐6‐phosphate dehydrogenase, and 130 mM MgCl2. The incubation was terminated at 60 min by the addition of 1 mL of ACN (with 6% of formic acid, with a total volume of 1.25 mL). The quenched sample was then centrifuged at 10,500 × g for 15 min, and 1 mL of the supernatant was collected to be injected into the Q‐Exactive Plus ESI MS System (Thermo Scientific, USA).

EGFRwt = system: EGFRwt; set-up: method as in PMID 30626888; conditions: in vitro enzymatic model; cited from earlier work
EGFRL858R = system: EGFRL858R; set-up: method as in PMID 30626888; conditions: in vitro enzymatic model; cited from earlier work
EGFRL858R/T790M = system: EGFRL858R/T790M; set-up: method as in PMID 30626888; conditions: in vitro enzymatic model; cited from earlier work
PC‐9 (EGFRL858R) [7] = test: Cell viability by MTT assay, PC-9; conditions: Homo sapiens; for IC50: read-out: cytotoxic activity, PC-9 (EGFRL858R); for CC50: 72 h, read-out: cytotoxic activity CC50, PC‐9 (EGFRL858R)
Procedure: as §3, §4

NCI‐H292 (EGFRwt) [8] = test: Cell viability by MTT assay, NCI-H292; conditions: for IC50: read-out: cytotoxic activity, NCI-H292 (EGFRw.t.)
Procedure: as §3, §4

PC‐9 (EGFRL858R) [9] = test: Cell viability by sulforhodamine B (SRB) assay, PC-9; conditions: Homo sapiens, 72 h, read-out: cytotoxic activity CC50, PC‐9 (EGFRL858R)
Procedure: as §3, §5

NCI‐H292 (EGFRwt) [10] = test: Cell viability by sulforhodamine B (SRB) assay, NCI-H292; conditions: Homo sapiens, NCI-H292, 72 h, read-out: cytotoxic activity CC50, NCI‐H292 (EGFRwt)
Procedure: as §3, §5

[11] = NADPH regenerator system: Absence
[12] = NADPH regenerator system: Presence
[13] = RLM, NADPH regenerator system: Absence
[14] = RLM, NADPH regenerator system: Presence
[15] = Homo sapiens, NCI-H292, 72 h, read-out: cytotoxic activity CC50, NCI‐H292 (EGFRwt), MTT, 72 h

Row | Classification BBB (PAMPA‐BBB) | Pe. Exp. BBB (PAMPA‐BBB) | Papp (PAMPA‐BBB) [×10⁻⁶ cm/s] | Fa (absorbed fraction) (PAMPA‐GIT) [%] | Papp (PAMPA‐GIT) [×10⁻⁶ cm/s] | Metabolism rate [5, 11] [%] | Metabolism rate [5, 12] [%] | Elimination rate constant (k) [5, 13] | Elimination rate constant (k) [5, 14] | half-life at 10 µM [5, 13] [min] | microsomal CLint at 10 µM [5, 13] [µL/min/mg] | half-life at 10 µM [5, 14] [min] | microsomal CLint at 10 µM [5, 14] [µL/min/mg] | SMILES | IC50 ([2]; NCI-H1975, 48 h) [µM] | CC50 [3] [µM] | inhibition of phosphorylation and activation of EGFR (EGFR in PC‐9 (EGFRL858R)) | cell cycle arrest phase (PC‐9 (EGFRL858R) [4]; 1 µM) | Classification GIT (PAMPA‐GIT) | IC50 (EGFRwt) [µM] | IC50 (EGFRL858R) [µM] | also measured
1 |  |  |  |  |  |  |  |  |  |  |  |  |  | C#Cc1cccc(Nc2ncnc3cc(OCCOC)c(OCCOC)cc23)c1 [Erlotinib, erlotinib, reference compound] | > 100 |  |  |  |  |  |  | increase in the population of cells undergoing apoptosis (PC‐9 (EGFRL858R) [1]; at their CC50): approximately 10%
2 | CNS + | 4.16 10^−6 cm/s | 4.16 ± 1.84 | 94.62 | 7.69 ± 0.7 | 21.99 | 53.93 | 0.0039 | 0.0129 | 178 | 0.975 | 53.7 | 3.23 | C=CC(=O)Nc1ccc2ncc(NC(=O)Nc3ccccc3)nc2c1 [LASSBio‐1971 (1)] | 6.45 | 18.5 | inhibit phosphorylation | G0/G1 phase arrest | High (high intestinal permeability (70%–100%)) | 0.025 ± 0.004 | 0.018 ± 0.003 | apoptosis phenotype induction (PC‐9 (EGFRL858R) [1]): could not induce an apoptosis phenotype; t 1/2 [5, 14]: 53.72 min; covalent adduct formation with glutathione [6]: a covalent adduct between glutathione and LASSBio‐1971 (1) was formed; IC50 (EGFRL858R/T790M): 1.68 ± 1.51 µM; IC50 (PC‐9 (EGFRL858R) [7]; 24 h): 6.42 µM; IC50 (PC‐9 (EGFRL858R) [7]; 48 h): 0.14 µM; CC50 (PC‐9 (EGFRL858R) [7]): 0.13 µM; IC50 (NCI‐H292 (EGFRwt) [8]; Homo sapiens, NCI-H292, 24 h): 18.4 µM; IC50 (NCI‐H292 (EGFRwt) [8]; Homo sapiens, NCI-H292, 48 h): 8.85 µM; CC50 (NCI‐H292 (EGFRwt) [8]; [15]): 1.5 µM; CC50 (NCI‐H292 (EGFRwt) [8]; read-out: cytotoxic activity CC50, NCI‐H292 (EGFRwt), MTT, 72 h): 1.51 µM; IC50 ([2]; NCI-H1975, 24 h): 51.3 µM; CC50 [2]: 5.1 µM; CC50 (PC‐9 (EGFRL858R) [9]): 1.02 µM; CC50 (NCI‐H292 (EGFRwt) [10]): 4.95 µM
3 | CNS ± | 2.37 10^−6 cm/s | 2.37 ± 0.44 | 26.78 | 0.82 ± 0.47 | 10.78 | 83.11 | 0.0016 | 0.1172 | 433 | 0.4 | 5.91 | 29.3 | CN(C)C/C=C/C(=O)Nc1ccc2ncc(NC(=O)Nc3ccccc3)nc2c1 [LASSBio‐1974 (2)] | 6.58 | 20.5 | inhibit phosphorylation | cycle arresting in the G0/G1 phase | Low (low permeability (0%–29%)) | 0.101 ± 0.012 | 0.032 ± 0.014 | phosphatidylserine externalization and cell membrane permeabilization, share of the NSCLC cell population (PC‐9 (EGFRL858R) [1]; LASSBio‐1974 10 µM, CA‐4 0.1 µM): ~90%; cell cycle arrest phase (PC‐9 (EGFRL858R) [4]; 10 µM): cell cycle arrest in G2/M phase; IC50 (EGFRL858R/T790M): 0.132 ± 0.049 µM; IC50 (PC‐9 (EGFRL858R) [7]; 24 h): 9.74 µM; IC50 (PC‐9 (EGFRL858R) [7]; 48 h): 1.22 µM; CC50 (PC‐9 (EGFRL858R) [7]): 1.1 µM; IC50 (NCI‐H292 (EGFRwt) [8]; Homo sapiens, NCI-H292, 24 h): 16.4 µM; IC50 (NCI‐H292 (EGFRwt) [8]; Homo sapiens, NCI-H292, 48 h): 7.25 µM; CC50 (NCI‐H292 (EGFRwt) [8]; [15]): 4.98 µM; IC50 ([2]; NCI-H1975, 24 h): 38 µM; CC50 [2]: 7.09 µM; CC50 (PC‐9 (EGFRL858R) [9]): 1.22 µM; CC50 (NCI‐H292 (EGFRwt) [10]): 8.99 µM
